Where two headings read alike, the source gives them in different places.
Tests used:
[1] = target: AMPA receptors; test: Binding test for test drug to AMPA receptors ([3H]AMPA competition); parameters: species or system Wistar rat; conditions: labeled ligand of the assay, listed among the conditions
Experimental: (§1) 20 mg of a test drug (TJ-54 or an extract of the constituent crude drug) was weighed. Distilled water was added to the test drug so as to give a concentration of 20 mg/125 μL (20 mg/100 μL for the extract of the constituent crude drug), and further the resulting solution was diluted to 2-fold with DMSO, which was used as a stock solution. This stock solution was diluted to have each concentration.
(2) Binding Test for Test Drug to AMPA Receptors
20 mL/g of 50 mM Tris-HCl buffer (containing 200 mM KSCN) was added to the cerebral cortex tissue collected from a Wistar rat. […]
(§2) After completion of the incubation, the mixture was filtered through a glass fiber filter (Whatman 1821-915 GF/B, Whatman) using a cell harvester (Brandel MLR-48, Skatron micro-96, Perkin Elmer), and the filter was washed 3 to 6 times with 50 mM Tris-HCl buffer. Then, the radioactivity of [^3H]AMPA on the glass fiber filter was measured using a liquid scintillation counter (Wallac Counter, Perkin Elmer). As for the nonspecific binding, the radioactivity of [^3H]AMPA in the presence of 1000 μM unlabeled L-glutamate was measured. As for the total binding, the radioactivity of [^3H]AMPA in the absence of the test drug was measured. The binding activity of the test drug was evaluated on the basis of the binding inhibition ratio obtained from the above formula. […]

[2] = target: glutamate binding site of NMDA receptors; test: Binding test for test drug to glutamate binding site of NMDA receptors ([3H]CGP-39653 competition); parameters: species or system Wistar rat; conditions: labeled ligand of the assay; listed among the conditions
Experimental: as §1
(4) Binding Test for Test Drug to Glutamate Binding Site of NMDA Receptors
20 mL/g of 50 mM Tris-HCl buffer was added to the cerebral cortex tissue collected from a Wistar rat. The resulting mixture was homogenized, and the homogenate was centrifuged (1,000×g for 10 minutes at 4° C.). […]
as §2, with “[^3H]CGP-39653” for “[^3H]AMPA”, “measured.” for “measured. The binding activity of the test drug was evaluated on the basis of the binding inhibition ratio obtained from the above formula.”

[3] = target: glutamate receptors; test: Non-selective binding test for test drug to glutamate receptors ([3H]L-glutamate competition); parameters: species or system Wistar rat; conditions: labeled ligand of the assay; listed among the conditions of the experiment
Experimental: as §1
(1) Non-Selective Binding Test for Test Drug to Glutamate Receptors
20 mL/g of 50 mM Tris-HCl buffer was added to the brain tissue collected from a Wistar rat. […]
as §2, with “[^3H]L-glutamate” for “[^3H]AMPA”, “50” for “1000”, “calculated from” for “evaluated on”, “following” for “basis of the”, “(%).” for “obtained from the above formula.”

[4] = target: T1, glycine binding site of NMDA receptors (Rattus norvegicus, UniProt P35439); test: Binding test for test drug to glycine binding site of NMDA receptors ([3H]MDL-105519 competition); parameters: species or system Wistar rat; conditions: labeled ligand of the assay; listed among the conditions
T1 construct: cerebral cortex tissue collected from a Wistar rat; from tissue; host or cells: cerebral cortex of Wistar rat, membrane fraction
Experimental: 20 mL/g of 50 mM HEPES buffer was added to the cerebral cortex tissue collected from a Wistar rat. The resulting mixture was homogenized, and the homogenate was centrifuged (1,000×g for 10 minutes at 4° C.). Then, the resulting supernatant was collected and centrifuged (20,000×g for 20 minutes at 4° C.) to obtain a pellet. The pellet was resuspended in a buffer and the suspension was centrifuged (8,000×g for 20 minutes at 4° C.). Further, the resulting supernatant was collected and centrifuged (48,000×g for 20 minutes at 4° C.) to obtain a pellet. […]
After completion of the incubation, the mixture was filtered through a glass fiber filter (Whatman 1821-915 GF/B, Whatman) using a cell harvester (Brandel MLR-48, Skatron micro-96, Perkin Elmer), and the filter was washed 3 to 6 times with 50 mM HEPES buffer. Then, the radioactivity of [^3H]MDL-105519 on the glass fiber filter was measured using a liquid scintillation counter (Wallac Counter, Perkin Elmer). As for the nonspecific binding, the radioactivity of [^3H]MDL-105519 in the presence of 10 μM unlabeled MDL-105519 was measured. As for the total binding, the radioactivity of [^3H]MDL-105519 in the absence of the test drug was measured. The binding activity of the test drug was evaluated on the basis of the binding inhibition ratio obtained from the above formula. […]

[5] = target: kainate receptors; test: Binding test for test drug to kainate receptors ([3H]kainic acid competition); parameters: species or system Wistar rat; conditions: labeled ligand of the assay; listed among the conditions
Experimental: as §1
(3) Binding Test for Test Drug to Kainate Receptors
20 mL/g of 50 mM Tris-HCl buffer was added to the brain tissue excluding the cerebellum tissue collected from a Wistar rat. The resulting mixture was homogenized, and centrifugation (48,000×g for 15 minutes at 4° C.) of the homogenate was repeated three times to obtain a membrane fraction. […]
Then, the radioactivity of [^3H]kainic acid on the glass fiber filter was measured using a liquid scintillation counter (Wallac Counter, Perkin Elmer). As for the nonspecific binding, the radioactivity of [^3H]kainic acid in the presence of 1000 μM unlabeled L-glutamate was measured. As for the total binding, the radioactivity of [^3H]kainic acid in the absence of the test drug was measured. The binding activity of the test drug was evaluated on the basis of the binding inhibition ratio obtained from the above formula. […]

[6] = target: T2, human recombinant mGluR5 (Homo sapiens, UniProt P41594); test: Binding test for test drug to metabotropic glutamate receptor mGluR5 ([3H]quisqualic acid competition); conditions: labeled ligand of the assay; listed among the conditions
T2 construct: purchased Perkin Elmer; host or cells: CHO-K1 cell membranes
T2 sequence (P41594 21-1212): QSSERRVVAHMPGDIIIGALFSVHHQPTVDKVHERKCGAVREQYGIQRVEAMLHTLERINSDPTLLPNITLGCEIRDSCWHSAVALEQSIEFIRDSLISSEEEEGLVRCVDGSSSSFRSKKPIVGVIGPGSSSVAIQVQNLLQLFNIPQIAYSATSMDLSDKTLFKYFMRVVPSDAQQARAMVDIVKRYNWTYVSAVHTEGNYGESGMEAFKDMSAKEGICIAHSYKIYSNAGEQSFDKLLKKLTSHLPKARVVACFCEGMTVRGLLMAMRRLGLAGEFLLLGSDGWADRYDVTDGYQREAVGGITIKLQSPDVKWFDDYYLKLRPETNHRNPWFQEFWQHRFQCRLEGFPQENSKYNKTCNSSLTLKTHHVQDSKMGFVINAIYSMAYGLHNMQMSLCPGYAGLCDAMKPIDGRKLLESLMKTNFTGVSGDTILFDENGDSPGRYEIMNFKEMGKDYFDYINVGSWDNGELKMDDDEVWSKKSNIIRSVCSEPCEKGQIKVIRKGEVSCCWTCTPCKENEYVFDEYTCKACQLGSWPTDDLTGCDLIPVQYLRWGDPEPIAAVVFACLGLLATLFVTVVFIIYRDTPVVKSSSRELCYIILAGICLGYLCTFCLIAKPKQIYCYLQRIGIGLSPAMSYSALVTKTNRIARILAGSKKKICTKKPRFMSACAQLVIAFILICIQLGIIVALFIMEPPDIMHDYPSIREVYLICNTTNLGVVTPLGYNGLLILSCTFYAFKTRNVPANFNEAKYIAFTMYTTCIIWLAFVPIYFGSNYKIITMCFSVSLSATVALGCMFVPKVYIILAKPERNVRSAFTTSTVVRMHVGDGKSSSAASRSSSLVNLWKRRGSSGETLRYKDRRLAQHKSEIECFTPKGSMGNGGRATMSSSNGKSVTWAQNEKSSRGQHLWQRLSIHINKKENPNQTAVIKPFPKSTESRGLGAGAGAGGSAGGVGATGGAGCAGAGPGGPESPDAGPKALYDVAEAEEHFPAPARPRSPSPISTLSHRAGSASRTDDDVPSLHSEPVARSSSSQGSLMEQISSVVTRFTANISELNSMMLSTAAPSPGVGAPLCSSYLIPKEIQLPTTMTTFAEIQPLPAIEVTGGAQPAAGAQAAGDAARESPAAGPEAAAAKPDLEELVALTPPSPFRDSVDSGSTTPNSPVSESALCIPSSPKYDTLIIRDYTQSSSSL
Experimental: (6) Binding Test for Test Drug to Metabotropic Glutamate Receptor mGluR5
30 μg protein/100 μL of a CHO-K1 cell membrane solution, 20 μL of [^3H]quisqualic acid (final concentration: 0.03 μM) and 1.1 μL of the test drug solution of each concentration were added to a 1 mL tube, and the resulting mixture was incubated at 25° C. for 2 hours. In the control group, a DMSO solution (final concentration: 0.5%) was added, and the resulting mixture was incubated in the same manner.
After completion of the incubation, the mixture was filtered through a glass fiber filter (Whatman 1821-915 GF/B, Whatman) using a cell harvester (Micro 96 FilterMate, Perkin Elmer), and the filter was washed 6 times with 20 mM HEPES buffer. Then, the radioactivity of [^3H]quisqualic acid on the glass fiber filter was measured using a liquid scintillation counter (Wallac Counter). As for the nonspecific binding, the radioactivity of [^3H]quisqualic acid in the presence of 1000 μM unlabeled L-glutamate was measured. As for the total binding, the radioactivity of [^3H]quisqualic acid in the absence of the test drug was measured. The binding activity of the test drug was evaluated on the basis of the binding inhibition ratio obtained from the above formula.
The respective conditions in this experiment are as follows. […]

For `Cc1onc(O)c1CC(N)C(=O)O` (stereo not drawn) [[^3H]AMPA, α-amino-3-hydroxy-5-methyl-4-isoxazolepropionate], the Kd ([1]; Kd1, read-out: Kd (Kd1)) was 18 nM and the Kd ([1]; Kd2, read-out: Kd (Kd2)) was 990 nM.

In the case of `CCCC(=CC(N)C(=O)O)CP(=O)(O)O` (stereo not shown) [[^3H]CGP-39653], the Kd [2] is reported as 19 nM.

`N[C@@H](CCC(=O)O)C(=O)O` [[^3H]L-glutamate, L-glutamate] showed a Kd [3] of 293 nM.

Compound `O=C(O)C(=Cc1c(C(=O)O)[nH]c2cc(Cl)cc(Cl)c12)c1ccccc1` [[^3H]MDL-105519] has a Kd [4] of 6 nM.

`C=C(C)[C@H]1CN[C@H](C(=O)O)[C@H]1CC(=O)O` [[^3H]kainic acid, kainic acid] was tested, and the Kd [5] was 12 nM.

`N[C@@H](Cn1oc(=O)[nH]c1=O)C(=O)O` [[^3H]quisqualic acid, quisqualic acid] gave a Kd [6] of 26 nM.

— patent US8420336B2, “Method of bioassaying yokukansan” (priority 2008, dated 2013)
